From paper PMC6386929, “Evaluation of the Antimicrobial Activity of Cationic Peptides Loaded in Surface-Modified Nanoliposomes against Foodborne Bacteria” (International Journal of Molecular Sciences, 2019)
Where no end group is shown, it is not given here.

Experiments:
[1] = test system: L. monocytogenes ATCCbaa751; type: cell-based, Listeria monocytogenes
Source text: (§1) L. monocytogenes ATCCbaa751 and E. coli ATCC25922, were obtained from the American Type Culture Collection (ATCC; Rockville, MD, USA). NovaPEG Rink Amida resin, Fmoc-protected amino acids, 2-(1H-benzotriazole-1-yl)-1,1,3,3-tetramethyluronium tetrafluoro-borate (TBTU), Piperidine, N,N-Diisopropylethylamine (DIEA), Ninhydrin, Dimethylformamide (DMF), Trifluoroacetic acid (TFA), 1,2-Ethanedithiol (EDT), Triisopropylsilane (TIS) and Mueller Hinton Broth (MHB) were purchased in Merck (Darmstadt, Germany). Cholesterol, Epikuron 200® and dioleoyl-phosphatidyl-ethanolamine (DOPE) were obtained from Avanti Polar Lipids (Alabaster, Alabama, USA). Eudragit® E-100 was purchased in Evonik (Darmstadt, Germany). Ampicillin (Fersinsa Gb) was supplied by Tecnoquímicas S.A. (Cali, Colombia) and Gentamicin solution (GENFAR®, Cali, Colombia) was purchased from a local pharmacy. The datasets used and materials using during this study are available from the corresponding author on reasonable request.
(§2) Microbial susceptibility tests were performed according to clinical and laboratory standards institute (CLSI) standard methods. Bacteria were inoculated in MHB and incubated overnight at 37 °C. […] After incubation, the minimum inhibitory concentration (MIC) was determined by visual analysis.

human erythrocytes = conditions: cited from earlier work
Source text: (§3) Alyteserin-1c is an AMP comprising a 23 amino acid residue (net charge: +2) and was first isolated from norepinephrine-stimulated skin secretions from the midwife toad Alytes obstetricans. […] Although AMPs are an alternative means for eliminating bacteria in foods, due to their biocompatibility, biodegradability, broad spectrum of activity and potent bactericidal properties, most ...

E. coli = conditions: cited from earlier work
Source text: as §3

E. coli ATCC25922 = type: cell-based, Escherichia coli
Source text: as §1, §2

[2] = Surface tension (pendant drop) and aggregation index (dual-angle DLS) of peptides in aqueous media; type: physicochemical; conditions: PBS pH 7.2, 138 mM NaCl; peptide 0–50 µM; pendant drop and dual-angle DLS (173° and 13°); triplicate
Experimental: Surface tension measurements of the peptides were carried out using a contact angle meter (OCA15EC Dataphysics Instruments, Filderstadt, Germany) with a software driver (version 4.5.14 SCA22), where the data capture was recorded using an IDS video camera. For this, the pendant-drop method was performed in triplicate, where peptide concentrations between 0 and 50 µM were prepared with ultrapure water and phosphate buffer saline pH 7.2 (PBS, 138 mM NaCl, 3 mM KCl, 1.5 mM NaH2PO4, 8.1 mM Na2HPO4). The samples of peptides +2 and +5 were prepared in serial concentrations between 0 and 50 µM in PBS buffer pH 7.2 at 138 mM of ionic strength. An aliquot was analysed immediately after preparation. Dual angle DLS measurements (173° and 13°) of automatic duration were carried out using a Zetasizer Nano ZSP (Malvern Instruments, Worcestershire, United Kingdom). The Aggregation Index is a parameter based on the mean z-average size measured for the two angles of scattering according to the equation: (1) Aggregation index=[Zfwd/Zbkd−1] where, Zfwd is the average particle size detected by forward scatter optics at 13°. Trace amounts of aggregate are often highly useful for the enhanced detection of large protein aggregates, whereas Zbkd is the particle size average at a detection angle of 173° (non-invasive back-scatter).

Sequence	MIC [1] [µM]	hemolytic activity (human erythrocytes)	MIC (E. coli) [µM]	MIC (E. coli ATCC25922) [µM]	concentration at which changes in surface tension and aggregation index are achieved [2] [µM]
GLKEIFKAGLGSLVKGIAAHVAS [peptide +2, Alyteserin-1c]	125	low hemolytic activity	25	15.2	20
GLKRIFKSGLGKLVKGISAHVAS [peptide +5]	62.5	–	–	62.5	5 to 10
